# Reference: patent US10233191B2, “Fused piperidine amides as modulators of ion channels” (Vertex Pharmaceuticals Incorporated, priority 2013, dated 2019)
# Target: T1, NaV 1.7 (Homo sapiens, UniProt Q15858)
# T1 construct: expressed in transfected cells; host or cells: HEK cells
# Experiment: E-VIPR optical membrane potential assay with electrical stimulation
# Assay type: cell-based
# Conditions: active against one or more sodium channels; assay/subtype not specified in Table 4; read-out: IC50 Binned Activity Data
# Excerpt: E-VIPR Optical Membrane Potential Assay Method with Electrical Stimulation
# Sodium channels are voltage-dependent proteins that can be activated by inducing membrane voltage changes by applying electric fields. The electrical stimulation instrument and methods of use are described in Ion Channel Assay Methods PCT/US01/21652, herein incorporated by reference and are referred to as E-VIPR. The instrument comprises a microtiter plate handler, an optical system for exciting the coumarin dye while simultaneously recording the coumarin and oxonol emissions, a waveform generator, a current- or voltage-controlled amplifier, and a device for inserting electrodes in well. Under integrated computer control, this instrument passes user-programmed electrical stimulus protocols to cells within the wells of the microtiter plate.
# 24 hours before the assay on E-VIPR, HEK cells expressing human NaV subtype, like NaV 1.7, are seeded in 384-well poly-lysine coated plates at 15,000-20,000 cells per well. Other subtypes are performed in an analogous mode in a cell line expressing the NaV of interest. HEK cells are grown in media (exact composition is specific to each cell type and NaV subtype) supplemented with 10% FBS (Fetal Bovine Serum, qualified; GibcoBRL #16140-071) and 1% Pen-Strep (Penicillin-Streptomycin; GibcoBRL #15140-122). Cells are grown in vented cap flasks, in 90% humidity and 10% CO2, to 100% confluence. They are usually split by trypsinization 1:10 or 1:20, depending on scheduling needs, and grown for 2-3 days before the next split.
# • 100 mg/mL Pluronic F-127 (Sigma #P2443), in dry DMSO • Compound Plates: 384-well round bottom plate, e.g. Corning 384-well Polypropylene Round Bottom #3656 • Cell Plates: 384-well tissue culture treated plate, e.g. Greiner #781091-1B • 10 mM DiSBAC6(3) (Aurora #00-100-010) in dry DMSO • 10 mM CC2-DMPE (Aurora #00-100-008) in dry DMSO • 200 mM ABSC1 in H2O
# Bath1 buffer. Glucose 10 mM (1.8 g/L), Magnesium Chloride (Anhydrous), 1 mM (0.095 g/L), Calcium Chloride, 2 mM (0.222 g/L), HEPES 10 mM (2.38 g/L), Potassium Chloride, 4.5 mM (0.335 g/L), Sodium Chloride 160 mM (9.35 g/L).
# Hexyl Dye Solution: Bath1 Buffer+0.5% β-cyclodextrin (make this prior to use, Sigma #C4767), 8 μM CC2-DMPE+2.5 μM DiSBAC6(3). To make the solution Add volume of 10% Pluronic F127 stock equal to volumes of CC2-DMPE+DiSBAC6(3). The order of preparation is first mix Pluronic and CC2-DMPE, then add DiSBAC6(3) while vortexing, then add Bath1+β-Cyclodextrin.
# 1) Pre-spot compounds (in neat DMSO) into compound plates. Vehicle control (neat DMSO), the positive control (20 mM DMSO stock tetracaine, 125 μM final in assay) and test compounds are added to each well at 160× desired final concentration in neat DMSO. Final compound plate volume will be 80 μL (80-fold intermediate dilution from 1 μL DMSO spot; 160-fold final dilution after transfer to cell plate). Final DMSO concentration for all wells in assay is 0.625%.
# 2) Prepare Hexyl Dye Solution.
# 3) Prepare cell plates. On the day of the assay, medium is aspirated and cells are washed three times with 100 μL of Bath1 Solution, maintaining 25 μL residual volume in each well.
# 4) Dispense 25 μL per well of Hexyl Dye Solution into cell plates. Incubate for 20-35 minutes at room temp or ambient conditions.
# 5) Dispense 80 μL per well of Bath1 into compound plates. Acid Yellow-17 (1 mM) is added and Potassium Chloride can be altered from 4.5 to 20 mM depending on the NaV subtype and assay sensitivity.
# 6) Wash cell plates three times with 100 μL per well of Bath1, leaving 25 μL of residual volume. Then transfer 25 uL per well from Compound Plates to Cell Plates. Incubate for 20-35 minutes at room temp/ambient condition
# 7) Read Plate on E-VIPR. Use the current-controlled amplifier to deliver stimulation wave pulses for typically 9 seconds and a scan rate of 400 Hz. A pre-stimulus recording is performed for 0.5 seconds to obtain the un-stimulated intensities baseline. […]
# T1 sequence (Q15858 whole entry): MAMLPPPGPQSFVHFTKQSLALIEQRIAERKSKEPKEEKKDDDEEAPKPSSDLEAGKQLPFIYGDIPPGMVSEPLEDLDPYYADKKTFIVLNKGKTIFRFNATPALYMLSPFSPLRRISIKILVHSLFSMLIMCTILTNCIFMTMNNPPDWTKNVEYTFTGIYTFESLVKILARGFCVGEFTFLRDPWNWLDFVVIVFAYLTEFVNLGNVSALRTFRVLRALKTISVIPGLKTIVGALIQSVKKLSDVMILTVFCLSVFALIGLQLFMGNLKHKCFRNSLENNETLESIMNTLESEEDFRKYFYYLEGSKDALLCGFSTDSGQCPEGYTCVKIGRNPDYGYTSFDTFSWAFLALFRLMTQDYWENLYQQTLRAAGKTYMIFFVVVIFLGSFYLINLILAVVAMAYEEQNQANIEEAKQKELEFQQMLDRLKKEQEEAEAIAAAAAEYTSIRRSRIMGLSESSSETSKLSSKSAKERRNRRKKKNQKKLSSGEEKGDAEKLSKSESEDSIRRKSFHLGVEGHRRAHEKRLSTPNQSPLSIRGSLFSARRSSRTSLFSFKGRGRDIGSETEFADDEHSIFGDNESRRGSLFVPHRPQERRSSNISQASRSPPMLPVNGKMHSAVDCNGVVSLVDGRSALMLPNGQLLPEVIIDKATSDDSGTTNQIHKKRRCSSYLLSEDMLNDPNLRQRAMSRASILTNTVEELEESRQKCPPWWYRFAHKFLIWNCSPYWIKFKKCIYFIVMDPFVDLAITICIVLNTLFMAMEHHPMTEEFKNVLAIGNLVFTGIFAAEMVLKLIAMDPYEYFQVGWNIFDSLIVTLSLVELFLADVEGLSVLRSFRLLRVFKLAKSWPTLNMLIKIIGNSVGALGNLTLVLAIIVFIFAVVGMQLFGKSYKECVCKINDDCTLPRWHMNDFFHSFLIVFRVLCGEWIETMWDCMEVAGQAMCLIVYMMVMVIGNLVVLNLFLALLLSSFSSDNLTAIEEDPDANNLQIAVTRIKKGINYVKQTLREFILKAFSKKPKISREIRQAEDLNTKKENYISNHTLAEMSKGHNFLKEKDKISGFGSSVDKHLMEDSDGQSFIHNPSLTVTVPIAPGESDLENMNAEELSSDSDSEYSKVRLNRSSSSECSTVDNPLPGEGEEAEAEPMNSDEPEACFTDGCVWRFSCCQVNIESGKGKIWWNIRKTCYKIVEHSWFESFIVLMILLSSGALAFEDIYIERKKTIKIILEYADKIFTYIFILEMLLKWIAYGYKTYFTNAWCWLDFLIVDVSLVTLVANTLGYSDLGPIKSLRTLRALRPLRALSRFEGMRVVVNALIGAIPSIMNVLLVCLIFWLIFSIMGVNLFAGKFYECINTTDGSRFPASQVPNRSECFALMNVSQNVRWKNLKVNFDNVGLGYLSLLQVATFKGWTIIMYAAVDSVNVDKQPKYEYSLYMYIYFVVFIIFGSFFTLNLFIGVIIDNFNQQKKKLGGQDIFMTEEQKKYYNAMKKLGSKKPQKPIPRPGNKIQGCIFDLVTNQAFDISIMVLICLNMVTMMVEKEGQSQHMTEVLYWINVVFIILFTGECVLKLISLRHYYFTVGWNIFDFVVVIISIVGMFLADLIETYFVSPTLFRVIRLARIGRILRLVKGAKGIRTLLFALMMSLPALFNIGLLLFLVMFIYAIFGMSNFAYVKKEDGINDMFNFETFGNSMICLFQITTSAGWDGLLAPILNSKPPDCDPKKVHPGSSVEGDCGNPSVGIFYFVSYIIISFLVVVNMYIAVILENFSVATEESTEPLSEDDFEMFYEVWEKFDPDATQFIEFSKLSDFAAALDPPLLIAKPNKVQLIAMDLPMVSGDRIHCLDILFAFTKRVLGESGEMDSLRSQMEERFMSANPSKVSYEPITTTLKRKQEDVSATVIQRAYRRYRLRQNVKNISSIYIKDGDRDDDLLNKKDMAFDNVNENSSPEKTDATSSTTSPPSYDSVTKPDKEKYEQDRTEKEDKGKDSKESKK
row,SMILES,IC50 [nM]
1,O=C(c1ccc(OCCOC(F)(F)F)c(Cl)c1)N1CC[C@@]2(c3ccccn3)COC2C1 (stereo partly drawn) [Compound 116],≤ 2000
2,COc1cc(C(=O)N2CC[C@]3(c4ccccc4)OCOC3C2)ccc1OC(C)C(F)(F)F (stereo partly drawn) [Compound 117],≤ 2000
3,CCOc1nc(C(=O)N2CC[C@]3(c4nccs4)OCOC3C2)ccc1OCCOC(F)(F)F (stereo partly drawn) [Compound 118],≤ 2000
4,O=C(c1cc2n(n1)C(C(F)(F)F)CC(C1CC1)N2)N1CCC2(c3ccccc3)CC2C1 (stereo not drawn) [Compound 119],≤ 2000
5,Cc1cc(C(=O)N2CC[C@@]3(c4ccccc4)OCOC3C2)ccc1OCC(C)(C)F (stereo partly drawn) [Compound 120],≤ 2000
6,COc1nc(C(=O)N2CCC3(c4ccccc4)CC3C2)ccc1OCC(C)(C)F (stereo not drawn) [Compound 125],≤ 2000
7,COc1nc(C(=O)N2CC[C@@]3(c4nccs4)OCOC3C2)ccc1OCCOC(F)(F)F (stereo partly drawn) [Compound 126],≤ 2000
8,CC(C)(F)COc1ccc(C(=O)N2CC[C@]3(c4ccccn4)OCO[C@@H]3C2)cc1C(F)(F)F [Compound 127],≤ 2000
9,COc1cc(C(=O)N2CC[C@]3(c4cccc(Cl)c4)OCOC3C2)ccc1OCCC(F)(F)F (stereo partly drawn) [Compound 131],≤ 2000
10,COc1cc(C(=O)N2CC[C@]3(c4ccccc4)OCCOC3C2)ccc1OCCOC(F)(F)F (stereo partly drawn) [Compound 132],≤ 2000
11,Cc1cc(C(=O)N2CC[C@]3(c4ccccc4)C[C@@H]3C2)ccc1OCC(C)(C)O [Compound 133],≤ 2000
12,COc1cc(C(=O)N2CC[C@]3(c4ccccc4)OCOC3C2)ccc1OCC1CC(F)(F)C1 (stereo partly drawn) [Compound 139],≤ 2000
13,O=C(c1ccc(OCCOC(F)(F)F)c(Cl)c1)N1CC[C@]2(c3nccs3)OCOC2C1 (stereo partly drawn) [Compound 140],≤ 2000

# The next lines start with the values.
row,IC50 [nM],SMILES
1,≤ 2000,COc1ccnc(C23CCN(C(=O)c4ccc(OCCOC(F)(F)F)c(OC)c4)CC2OCO3)c1 (stereo not drawn) [Compound 112]
2,≤ 2000,Cc1cc(C(=O)N2CCC3(c4ccccc4)CC3C2)ccc1C(C)(C)O (stereo not drawn) [Compound 113]
3,≤ 2000,Cc1cc(C(=O)N2CC[C@@]3(c4ccccc4)C[C@@H]3C2)ccc1OCC(C)(C)O [Compound 114]
4,≤ 2000,COc1cc(C(=O)N2CCC3(c4ccccc4)CC3C2)ccc1C(C)(C)CO (stereo not drawn) [Compound 115]
5,≤ 2000,CC(C)(C)COc1ccc(C(=O)N2CC[C@]3(c4ccccn4)OCOC3C2)cc1Cl (stereo partly drawn) [Compound 121]
6,≤ 2000,COc1cc(C(=O)N2CC[C@@]3(c4ccc(F)cc4)OCOC3C2)ccc1OCCOC(F)(F)F (stereo partly drawn) [Compound 122]
7,≤ 2000,O=C(c1ccc(OCC(F)(F)C(F)F)c(C(F)(F)F)c1)N1CC[C@]2(c3ccccn3)OCOC2C1 (stereo partly drawn) [Compound 123]
8,≤ 2000,Cc1cc(C(=O)N2CC[C@]3(c4ccc(F)cc4)OCOC3C2)ccc1OCC(C)(C)F (stereo partly drawn) [Compound 124]
9,≤ 2000,O=C(c1ccc(OCCC(F)(F)F)c(C(F)(F)F)c1)N1CC[C@]2(c3ccccn3)OCOC2C1 (stereo partly drawn) [Compound 128]
10,≤ 2000,Cc1cc(C(=O)N2CC[C@]3(c4ncccc4F)OCOC3C2)ccc1OCCOC(F)(F)F (stereo partly drawn) [Compound 129]
11,≤ 2000,COc1nc(C(=O)N2CC[C@]3(c4ccccn4)OCOC3C2)ccc1OCC1(C(F)(F)F)CC1 (stereo partly drawn) [Compound 130]
12,≤ 2000,Cc1nc(C(=O)N2CCC3(c4ccccc4)CC3C2)ccc1OC(C)C (stereo not drawn) [Compound 134]
13,≤ 2000,O=C(c1ccc(OCC2CC2(F)F)c(Cl)c1)N1CC[C@]2(c3ccccn3)OCOC2C1 (stereo partly drawn) [Compound 135]
14,≤ 2000,COc1cc(C(=O)N2CCC3(c4ccccc4)CC3C2)ccc1COCCC(F)(F)F (stereo not drawn) [Compound 136]
15,≤ 2000,CCOc1nc(C(=O)N2CC[C@@]3(c4nccs4)OCOC3C2)ccc1OCCOC(F)(F)F (stereo partly drawn) [Compound 137]
16,≤ 2000,O=C(c1ccc(OCCOC(F)(F)F)c(Cl)c1)N1CC[C@@]2(c3nccs3)OCOC2C1 (stereo partly drawn) [Compound 138]
17,≤ 2000,COc1cc(C(=O)N2CC[C@]3(c4cccc(Br)n4)OCOC3C2)ccc1OCCOC(F)(F)F (stereo partly drawn) [Compound 141]
